Values quoted from earlier work as cited in US7777051B2, “Asymmetric benzimidazoles and related compounds as potassium channel modulators” (Icagen, Inc., priority 2003, dated 2010).

Test system: SK channels
Settings: not given

Molecule | inhibition of SK channels
O=C1N(c2ccccc2)c2ccccc2C1(Cc1ccncc1)Cc1ccncc1 [linopirdine] | ineffective at inhibiting SK channels

Molecular target: SK2 subtype channels (Rattus norvegicus, UniProt P70604)
Settings: patch clamp

Molecule | block of SK2 channel currents
CN(C)CCC=C1c2ccccc2CCc2ccccc21 [amitriptyline] | block SK2 channel currents with micromolar affinity
Nc1c2c(nc3ccccc13)CCCC2 [tacrine] | block SK2 channel currents with micromolar affinity
NC(=O)N1c2ccccc2C=Cc2ccccc21 [carbamazepine] | block SK2 channel currents with micromolar affinity

Molecular target: T1, recombinant human SK4 (hIK1 or hKCa4) channels (Homo sapiens, UniProt O15554+P0DP23)
T1 construct: host or cells: HEK 293 cells (transfected, membrane patches)
Settings: applied to the inside of membrane patches, concentrations up to 100 μM; HEK 293

Molecule | activation of SK4 channels
lead | activated SK4 channels in a concentration-dependent manner
Barium | activated SK4 channels in a concentration-dependent manner
strontium | activated SK4 channels in a concentration-dependent manner
cadmium | activated SK4 channels in a concentration-dependent manner
zinc | did not activate the SK4 channels
cobalt | did not activate the SK4 channels
calcium | activated SK4 channels in a concentration-dependent manner
iron | did not activate the SK4 channels
magnesium | did not activate the SK4 channels
